The source of these data is PubChem BioAssay AID200 (DTP/NCI, 2004).

The experiment relates to B6C3F1 mice, B16 melanoma ip, median survival T/C. The experiment can be described thus: NCI In Vivo Anticancer Drug Screen. Data for tumor model B16 Melanoma (intraperitoneal) in B6C3F1 mice. Conditions: endpoint: median survival time, higher = longer survival. The essentials:
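Values are T/C ratios: the measurement in treated animals divided by that in vehicle-treated controls, using survival or tumor size in mice carrying transplantable tumors.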

Where [1] appears, read: dose: 12.5 mg/kg/injection, schedule: Q01DX009 (ip), vehicle: saline with Tween-80.
Setting [2] is: dose: 25.0 mg/kg/injection, schedule: Q01DX009 (ip), vehicle: saline with Tween-80.
The mark [3] stands for this setting: dose: 50.0 mg/kg/injection, schedule: Q01DX009 (ip), vehicle: saline with Tween-80.
[4] abbreviates: dose: 100.0 mg/kg/injection, schedule: Q01DX009 (ip), vehicle: saline with Tween-80.
[5] abbreviates: dose: 25.0 mg/kg/injection, schedule: Q01DX009 (ip), vehicle: Klucel (hydroxypropylcellulose) (HPC).
Setting [6] is: dose: 25.0 mg/kg/injection, schedule: Q01DX009 (ip), vehicle: suspension in saline.
The mark [7] stands for this setting: dose: 12.5 mg/kg/injection, schedule: Q01DX009 (ip), vehicle: saline.
Where [8] appears, read: dose: 25.0 mg/kg/injection, schedule: Q01DX009 (ip), vehicle: saline.
[9] abbreviates: dose: 100.0 mg/kg/injection, schedule: Q01DX009 (ip), vehicle: saline.
[10] abbreviates: dose: 4.0 mg/kg/injection, schedule: Q01DX009 (ip), vehicle: saline.
The mark [11] stands for this setting: dose: 8.0 mg/kg/injection, schedule: Q01DX009 (ip), vehicle: saline with Tween-80.
Setting [12] is: dose: 100.0 mg/kg/injection, schedule: Q01DX009 (ip), vehicle: Klucel (hydroxypropylcellulose) (HPC).
Where [13] appears, read: dose: 50.0 mg/kg/injection, schedule: Q01DX009 (ip), vehicle: saline.
Setting [14] is: dose: 200.0 mg/kg/injection, schedule: Q01DX009 (ip), vehicle: saline.

Values joined by “and” are separate entries in the source; they are usually repeats but may differ in a detail not shown here. Equal entries are not always repeated. Inconclusive results and toxic doses are left out.

As for `BrC1CC(Br)c2c1c1c(c3c2C(Br)CC3Br)C(Br)CC1Br` (centres undefined), the T/C runs as follows: under setting [1], 108 % of control and 105 % of control; under setting [2], 114 % of control and 117 % of control and 123 % of control; under setting [3], 114 % of control; under setting [4], 118 % of control and 93 % of control; (dose: 200.0 mg/kg/injection, schedule: Q01DX009 (ip), vehicle: saline with Tween-80) 123 % of control.

In the case of `O=C(Nc1cccc2c(OC(=O)C(Cl)Cl)c(N=Nc3ccc(S(=O)(=O)Nc4nccs4)cc3)cc(N=Nc3ccc(S(=O)(=O)Nc4nccs4)cc3)c12)C(Cl)Cl` (tested in a mixture with another compound), the T/C by setting is: (dose: 3.12 mg/kg/injection, schedule: Q01DX009 (ip), vehicle: saline with Tween-80) 104 % of control; (dose: 3.13 mg/kg/injection, schedule: Q01DX009 (ip), vehicle: saline with Tween-80) 94 % of control; (dose: 6.25 mg/kg/injection, schedule: Q01DX009 (ip), vehicle: saline with Tween-80) 115 % of control and 119 % of control and 87 % of control; under setting [1], 114 % of control and 100 % of control and 104 % of control; under setting [2], 109 % of control; under setting [3], 108 % of control. In addition, the T/C under setting [4] was 95 % of control.

As to `Nc1ncnc2c1nnn2C1OC(CO)C(O)C1O` (centres undefined), the T/C reads like this: (dose: 6.0 mg/kg/injection, schedule: Q01DX009 (ip), vehicle: Klucel (hydroxypropylcellulose) (HPC)) 113 % of control; (dose: 12.0 mg/kg/injection, schedule: Q01DX009 (ip), vehicle: Klucel (hydroxypropylcellulose) (HPC)) 115 % of control; under setting [5], 176 % of control.

Consider `Nc1nc(F)nc2c1ncn2C1OC(COP(=O)(O)O)C(O)C1O` (centres undefined), for which the T/C is, setting by setting: (dose: 12.5 mg/kg/injection, schedule: Q01DX009 (ip), vehicle: suspension in saline) 90 % of control; under setting [6], 97 % of control; (dose: 50.0 mg/kg/injection, schedule: Q01DX009 (ip), vehicle: suspension in saline) 93 % of control; (dose: 100.0 mg/kg/injection, schedule: Q01DX009 (ip), vehicle: suspension in saline) 105 % of control.

On to `CN(CO)c1nc(N(C)CO)nc(N(C)CO)n1`, for which the T/C reads like this: under setting [7], 113 % of control and 115 % of control; under setting [8], 118 % of control; under setting [9], 153 % of control and 190 % of control.

Regarding `COc1cc(NS(C)(=O)=O)ccc1Nc1c2ccccc2nc2ccccc12`, the T/C runs as follows: (dose: 0.5 mg/kg/injection, schedule: Q01DX009 (ip), vehicle: other) 166 % of control and 168 % of control; (dose: 1.0 mg/kg/injection, schedule: Q01DX005 (ip), vehicle: other) 195 % of control; (dose: 1.0 mg/kg/injection, schedule: Q01DX005 (iv), vehicle: other) 101 % of control; (dose: 1.0 mg/kg/injection, schedule: Q01DX011 (ip), vehicle: saline with Tween-80) 175 % of control; (dose: 2.0 mg/kg/injection, schedule: Q01DX005 (ip), vehicle: clinical formulation) 177 % of control; (dose: 2.0 mg/kg/injection, schedule: Q01DX005 (iv), vehicle: clinical formulation) 99 % of control. In addition, the T/C is, setting by setting: (dose: 2.0 mg/kg/injection, schedule: Q01DX005 (oral), vehicle: other) 100 % of control; (dose: 2.0 mg/kg/injection, schedule: Q01DX009 (ip), vehicle: saline with Tween-80) 193 % of control; (dose: 2.0 mg/kg/injection, schedule: Q01DX011 (ip), vehicle: saline with Tween-80) 209 % of control; (dose: 4.0 mg/kg/injection, schedule: Q01DX005 (ip), vehicle: clinical formulation) 275 % of control; (dose: 4.0 mg/kg/injection, schedule: Q01DX005 (oral), vehicle: other) 104 % of control; (dose: 4.0 mg/kg/injection, schedule: Q01DX009 (ip), vehicle: saline with Tween-80) 253 % of control. Besides, the T/C under setting [10] is 187 % of control and 213 % of control and 222 % of control; the T/C (dose: 4.0 mg/kg/injection, schedule: Q01DX011 (ip), vehicle: saline with Tween-80) was 63 % of control; the T/C (dose: 4.0 mg/kg/injection, schedule: Q01DX011 (oral), vehicle: saline with Tween-80) is 98 % of control; the T/C (dose: 8.0 mg/kg/injection, schedule: Q01DX001 (iv), vehicle: clinical formulation) is 105 % of control; the T/C (dose: 8.0 mg/kg/injection, schedule: Q01DX005 (oral), vehicle: other) is 103 % of control; the T/C under setting [11] is 283 % of control. The T/C (dose: 8.0 mg/kg/injection, schedule: Q01DX011 (oral), vehicle: saline with Tween-80) was 92 % of control and the T/C (dose: 16.0 mg/kg/injection, schedule: Q01DX001 (iv), vehicle: clinical formulation) was 112 % of control.

Consider `O=c1[nH]cnc2c1cnn2CN1CCOCC1`, for which the T/C under setting [5] is 98 % of control and 99 % of control; the T/C (dose: 50.0 mg/kg/injection, schedule: Q01DX009 (ip), vehicle: Klucel (hydroxypropylcellulose) (HPC)) is 100 % of control and 102 % of control; the T/C under setting [12] is 123 % of control and 100 % of control; the T/C (dose: 200.0 mg/kg/injection, schedule: Q01DX009 (ip), vehicle: Klucel (hydroxypropylcellulose) (HPC)) is 99 % of control.

Consider `CCCCOc1ccc(C(=O)SCCCN=C(N)N)cc1`, for which the T/C was 92 % of control (dose: 3.12 mg/kg/injection, schedule: Q01DX009 (ip), vehicle: suspension in saline); 97 % of control (dose: 6.25 mg/kg/injection, schedule: Q01DX009 (ip), vehicle: suspension in saline); 87 % of control under setting [6].

With `C/C=C/C=C\C=C/C(O)CC(OP(=O)(O)O)C(C)(O)/C=C/C1CC=CC(=O)O1` (centres undefined), the T/C was 107 % of control (dose: 0.38 mg/kg/injection, schedule: Q01DX009 (ip), vehicle: water); 117 % of control (2×) and 123 % of control (dose: 0.75 mg/kg/injection, schedule: Q01DX009 (ip), vehicle: water); 157 % of control and 184 % of control (dose: 6.0 mg/kg/injection, schedule: Q01DX009 (ip), vehicle: water).

`CN(C)CC1CCCC(CN(C)C)C1=O` (centres undefined): the T/C by setting is: under setting [13], 103 % of control; under setting [9], 97 % of control; under setting [14], 100 % of control.

Consider `O=C(O)/C=C(\F)C(=O)O`, for which the T/C is, setting by setting: (dose: 6.25 mg/kg/injection, schedule: Q01DX009 (ip), vehicle: saline) 97 % of control and 100 % of control; under setting [7], 102 % of control and 107 % of control; under setting [8], 108 % of control and 117 % of control; under setting [13], 113 % of control and 114 % of control; under setting [9], 103 % of control and 113 % of control; under setting [14], 113 % of control and 103 % of control.

As to `CC(C)(C)N(C(=O)OCC1c2ccccc2-c2ccccc21)C(CO)C(=O)O` (centres undefined), under setting [12], the T/C is 96 % of control.

On to `COc1cc2c(cc1O)N=C[C@@H]1CCC(O)N1C2=O` (mixture of isomers), for which the T/C (dose: 0.5 mg/kg/injection, schedule: Q01DX009 (ip), vehicle: saline) is 100 % of control; the T/C (dose: 1.0 mg/kg/injection, schedule: Q01DX009 (ip), vehicle: saline) was 100 % of control and 107 % of control; the T/C (dose: 2.0 mg/kg/injection, schedule: Q01DX009 (ip), vehicle: saline) is 111 % of control and 106 % of control; the T/C under setting [10] was 110 % of control and 121 % of control; the T/C (dose: 8.0 mg/kg/injection, schedule: Q01DX009 (ip), vehicle: saline) was 115 % of control.

Turning to `CN(C)N=Nc1ccc(C(N)=O)cc1`, the T/C runs as follows: (dose: 4.5 mg/kg/injection, schedule: Q01DX009 (ip), vehicle: saline with Tween-80) 110 % of control; (dose: 7.5 mg/kg/injection, schedule: Q01DX009 (ip), vehicle: saline with Tween-80) 114 % of control; under setting [11], 107 % of control; under setting [1], 119 % of control and 120 % of control; (dose: 13.0 mg/kg/injection, schedule: Q01DX009 (ip), vehicle: saline with Tween-80) 101 % of control; (dose: 20.83 mg/kg/injection, schedule: Q01DX009 (ip), vehicle: saline with Tween-80) 114 % of control and 288 % of control. The T/C is 118 % of control (dose: 21.0 mg/kg/injection, schedule: Q01DX009 (ip), vehicle: saline with Tween-80); 110 % of control and 115 % of control (dose: 34.72 mg/kg/injection, schedule: Q01DX009 (ip), vehicle: saline with Tween-80); 111 % of control (dose: 35.0 mg/kg/injection, schedule: Q01DX009 (ip), vehicle: saline with Tween-80); 124 % of control (dose: 57.86 mg/kg/injection, schedule: Q01DX009 (ip), vehicle: saline with Tween-80); 118 % of control (dose: 58.0 mg/kg/injection, schedule: Q01DX009 (ip), vehicle: saline with Tween-80); 117 % of control (dose: 96.0 mg/kg/injection, schedule: Q01DX009 (ip), vehicle: saline with Tween-80).
